Among the data in patent publication US20260364068A1, “ANTIVIRAL USE OF HETEROARYL DERIVATIVE COMPOUND” (UIF (University Industry Foundation), Yonsei University, priority 2022, published 2026) are viability values, retold here.

Structures are written as SMILES.

The series in a line: Cell viability measurement (MTS), Calu-3 cells. Type of series: cell-based. Particulars: human. The procedure: Experimental Example 3: Cell Viability Measurement
Vero cell line (VERO01WCB-1201, Ministry of Food and Drug Safety, Republic of Korea), Calu-3 cell line (KCLB #30055, Korea Cell Line Bank (KCLB), Republic of Korea), CellTiter 96® AQueous One Solution Cell Proliferation Assay kit (Promega, cat. #G3582), and Infinite M200 microplate reader (Tecan).
Calu-3 cells were cultured at 37 °C and 5% CO2 in MEM medium supplemented with 10% fetal bovine serum, 2.2 g/L sodium bicarbonate, 1% 100 units/mL penicillin, and 100 μg/mL streptomycin.
Vero cells or Calu-3 cells were seeded in 96-well microplates and cultured for 24 hours until the cell confluency reached 20%. After the incubation, compounds were treated in DMSO at concentrations (1, 3, and 10 μM) to reach 0.5% v/v in each well, and reacted at 37 °C for 48 hours. Into each well of the incubated 96-well microplate, 3-(4,5-dimethylthiazol-2-yl)-5-(3-carboxymethoxyphenyl)-2-(4-sulfophenyl)-2H-tetrazolium salt (MTS) assay solution [CellTiter 96® AQueous One Solution Cell Proliferation Assay kit (Promega)] mixed with DMEM medium at a ratio of 1:5, was dispensed at 100 μL/well and incubated at 37 °C for 1 hour. The 490 nm and 690 nm absorbance was then measured using an Infinite M200 instrument.
The cell viability (also, referred to as cell survival rate) (%) by compound treatment was calculated using the following analysis method. The 690 nm background absorbance value was subtracted from the measured 490 nm absorbance value. Then, to obtain the cell viability of each test group, the viability of the DMSO-treated group that was not treated with the compound was set to 100% and then the relative viability 1 of each compound was calculated. Two to six repeated tests were performed to obtain the results, and the mean values of the results were categorized into the following ranges and shown in Table 5 below (A: 80% survived, B: 50-80% survived, N/A: not tested)

By viability is commonly meant the share of living cells, or the viability signal relative to a control. For `Fc1cc2nc(-c3cccc(Nc4cnc(-c5ccncn5)cn4)c3)[nH]c2cc1F` [Example 297, N-(3-(5,6-difluoro-1H-benzo[d]imidazol-2-yl)phenyl)-5-(pyrimidin-4-yl)pyrazin-2-amine], the viability at 48 h, 10 µM was above 80%.
On to `c1cc(Nc2ccc(-c3ccnnc3)cc2)cc(-c2nc3ccccc3[nH]2)c1` [Example 94, 3-(1H-benzo[d]imidazol-2-yl)-N-(4-pyridazin-4-ylphenyl)aniline], for which the viability at 48 h, 1 µM is 50 to 80%.
In turn, `FC(F)(F)Oc1ccc2nc(-c3cccc(Nc4ncc(-c5cccnn5)cn4)c3)[nH]c2c1` [Example 295, 5-(pyridazin-3-yl)-N-(3-(6-(trifluoromethoxy)-1H-benzo[d]imidazol-2-yl)phenyl)pyrimidin-2-amine] gave a viability at 48 h, 10 µM above 80%.
The compound `c1ccc(-c2ccc(Nc3cccc(-c4nc5ccccc5[nH]4)c3)cc2)cc1` [Example 19, N-[3-(1H-benzo[d]imidazol-2-yl)phenyl]-[1,1′-biphenyl]-4-amine] came in with a viability at 48 h, 1 µM of 50 to 80% and a viability at 48 h, 3 µM of 50 to 80%.
`Fc1cc2nc(-c3cccc(Nc4ccc(-c5ccncn5)cc4)c3)[nH]c2cc1F` [Example 95, 3-(5,6-difluoro-1H-benzo[d]imidazol-2-yl)-N-(4-pyrimidin-4-ylphenyl)aniline] showed a viability at 48 h, 1 µM of 50 to 80%.
`FC(F)(F)Oc1cc2nc(-c3cccc(Nc4ncc(-c5cccnn5)cn4)c3)[nH]c2cc1Cl` [Example 120, N-[3-[6-chloro-5-(trifluoromethoxy)-1H-benzo[d]imidazol-2-yl]phenyl]-5-pyridazin-3-yl-pyrimidin-2-amine]: the viability at 48 h, 10 µM is above 80%.
In turn, `Fc1cc2nc(-c3cccc(Nc4ncc(-c5cccnn5)cn4)c3)[nH]c2cc1F` [Example 99, N-[3-(5,6-difluoro-1H-benzo[d]imidazol-2-yl)phenyl]-5-pyridazin-3-yl-pyrimidin-2-amine] came in with a viability at 48 h, 1 µM above 80%; a viability at 48 h, 3 µM above 80%; a viability at 48 h, 10 µM above 80%.
As for `COc1ccc2nc(-c3cccc(Nc4ncc(-c5cccnn5)cn4)c3)[nH]c2c1` [Example 108, N-[3-(6-methoxy-1H-benzo[d]imidazol-2-yl)phenyl]-5-pyridazin-3-yl-pyrimidin-2-amine], the viability at 48 h, 1 µM is above 80%; the viability at 48 h, 3 µM was above 80%; the viability at 48 h, 10 µM is above 80%.
On to `Cc1cccc2nc(-c3cccc(Nc4ccc(-c5cccnn5)cc4)c3)[nH]c12` [Example 101, 3-(7-methyl-1H-benzo[d]imidazol-2-yl)-N-(4-pyridazin-3-ylphenyl)aniline], for which the viability at 48 h, 1 µM was above 80%.
`CC(C)(C)c1ccc2nc(-c3cccc(Nc4ccc(-c5cccnn5)cc4)c3)[nH]c2c1` [Example 107, 3-(6-tert-butyl-1H-benzo[d]imidazol-2-yl)-N-(4-pyridazin-3-ylphenyl)aniline] yielded a viability at 48 h, 1 µM above 80%.
On to `FC(F)(F)c1ccc2nc(-c3cccc(Nc4ccc(-c5ncccn5)cn4)c3)[nH]c2c1` [Example 100, 5-pyrimidin-2-yl-N-[3-[6-(trifluoromethyl)-1H-benzo[d]imidazol-2-yl]phenyl]pyridin-2-amine], for which the viability at 48 h, 1 µM lay in the range of 50 to 80%.
Compound `FC(F)(F)Oc1ccc2nc(-c3cccc(Nc4ccc(-c5ccncn5)cc4)c3)[nH]c2c1` [Example 109, N-(4-pyrimidin-4-ylphenyl)-3-[6-(trifluoromethoxy)-1H-benzo[d]imidazol-2-yl]aniline] came in with a viability at 48 h, 1 µM of 50 to 80%.
As for `Fc1cc2[nH]c(-c3cccc(Nc4ncc(-c5ccccn5)cn4)c3)nc2cn1` [Example 286, N-(3-(6-fluoro-1H-imidazo[4,5-c]pyridin-2-yl)phenyl)-5-(pyridin-2-yl)pyrimidin-2-amine], the viability at 48 h, 10 µM was above 80%.
`c1cnc(-c2ccc(Nc3cccc(-c4nc5ccccc5[nH]4)c3)nc2)nc1` [Example 69, N-(3-(1H-benzo[d]imidazol-2-yl)phenyl)-5-(pyrimidin-2-yl)pyridin-2-amine]: the viability at 48 h, 1 µM was above 80%.
Consider `c1cc(Nc2ncc(-c3cccnn3)cn2)cc(-c2nc3cnccc3[nH]2)c1` [Example 49, N-(3-{1H-imidazolo[4,5-c]pyridin-2-yl}phenyl)-5-(pyridazin-3-yl)pyrimidin-2-amine], for which the viability at 48 h, 1 µM is above 80%; the viability at 48 h, 3 µM was above 80%; the viability at 48 h, 10 µM was above 80%.
Take `c1cnc(-c2cnc(Nc3cccc(-c4nc5ccccc5[nH]4)c3)nc2)nc1` [Example 71, N-[3-(1H-benzo[d]imidazol-2-yl)phenyl]-[2,5′-bipyrimidin]-2′-amine]: the viability at 48 h, 1 µM is above 80% and the viability at 48 h, 3 µM fell in the range of 50 to 80%.
`Fc1ccc2nc(-c3cccc(Nc4ccc(-c5ccccn5)cc4)c3)[nH]c2c1` [Example 92, 3-(6-fluoro-1H-benzo[d]imidazol-2-yl)-N-[4-(2-pyridyl)phenyl]aniline] returned a viability at 48 h, 1 µM of 50 to 80%.
`c1cc(Nc2ccc(-c3ccncn3)cn2)cc(-c2nc3ccccc3[nH]2)c1` [Example 68, N-[3-(1H-benzo[d]imidazol-2-yl)phenyl]-5-(pyrimidin-4-yl)pyridin-2-amine]: the viability at 48 h, 1 µM was in the range of 50 to 80%.
The compound `c1ccc(-c2ccc(Nc3cccc(-c4nc5ccccc5[nH]4)c3)cn2)cc1` [Example 80, N-[3-(1H-benzo[d]imidazol-2-yl)phenyl]-6-phenyl-pyridin-3-amine] yielded a viability at 48 h, 1 µM above 80% and a viability at 48 h, 3 µM of 50 to 80%.
The compound `Clc1cc2[nH]c(-c3cccc(Nc4ncc(-c5cscn5)cn4)c3)nc2cn1` [Example 303, N-(3-(6-chloro-1H-imidazo[4,5-c]pyridin-2-yl)phenyl)-5-(thiazol-4-yl)pyrimidin-2-amine] came in with a viability at 48 h, 10 µM of 50 to 80%.
In turn, `c1cc(Nc2ncc(-c3cccnn3)cn2)cc(-c2nc3ccccc3[nH]2)c1` [Example 53, N-[3-(1H-benzo[d]imidazol-2-yl)phenyl]-5-(pyridazin-3-yl)pyrimidin-2-amine] had a viability at 48 h, 1 µM above 80%; a viability at 48 h, 3 µM of 50 to 80%; a viability at 48 h, 10 µM of 50 to 80%.
The compound `Fc1cc2[nH]c(-c3cccc(Nc4ccc(-c5cccnn5)cc4)c3)nc2cc1C(F)(F)F` [Example 104, 3-[6-fluoro-5-(trifluoromethyl)-1H-benzo[d]imidazol-2-yl]-N-(4-pyridazin-3-ylphenyl)aniline] yielded a viability at 48 h, 1 µM of 50 to 80% and a viability at 48 h, 3 µM of 50 to 80%.
As for `c1cc(Nc2ccc(-c3ccncc3)cc2)cc(-c2nc3ccccc3[nH]2)c1` [Example 33, N-[3-(1H-benzo[d]imidazol-2-yl)phenyl]-4-(pyridin-4-yl)aniline], the viability at 48 h, 1 µM fell in the range of 50 to 80%.
Compound `FC(F)(F)Oc1ccc2nc(-c3cccc(Nc4ncc(-c5ccccn5)cn4)c3)[nH]c2c1` [Example 118, 5-(2-pyridyl)-N-[3-[6-(trifluoromethoxy)-1H-benzo[d]imidazol-2-yl]phenyl]pyrimidin-2-amine] registered a viability at 48 h, 10 µM of 50 to 80%.
Take `FC(F)(F)c1ccc2nc(-c3cccc(Nc4ccc(-c5ccccn5)cc4)c3)[nH]c2c1` [Example 98, N-[4-(2-pyridyl)phenyl]-3-[6-(trifluoromethyl)-1H-benzo[d]imidazol-2-yl]aniline]: the viability at 48 h, 1 µM is 50 to 80%.
As to `c1cc(Nc2ccc(C3CCCCC3)cc2)cc(-c2nc3ccccc3[nH]2)c1` [Example 97, 3-(1H-benzo[d]imidazol-2-yl)-N-(4-cyclohexylphenyl)aniline], the viability at 48 h, 1 µM is above 80% and the viability at 48 h, 3 µM fell in the range of 50 to 80%.
For `FC(F)(F)c1cc2[nH]c(-c3cccc(Nc4ncc(-c5cccnn5)cn4)c3)nc2cn1` [Example 103, 5-pyridazin-3-yl-N-[3-[6-(trifluoromethyl)-1H-imidazo[4,5-c]pyridin-2-yl]phenyl]pyrimidin-2-amine], the viability at 48 h, 1 µM was above 80%; the viability at 48 h, 3 µM was above 80%; the viability at 48 h, 10 µM was above 80%.
Take `FC(F)Oc1ccc2nc(-c3cccc(Nc4cnc(-c5ccccn5)cn4)c3)[nH]c2c1` [Example 300, N-(3-(6-(difluoromethoxy)-1H-benzo[d]imidazol-2-yl)phenyl)-5-(pyridin-2-yl) pyrazin-2-amine]: the viability at 48 h, 10 µM was above 80%.
`c1cc(Nc2ncc(-c3cncnc3)cn2)cc(-c2nc3ccccc3[nH]2)c1` [Example 70, N-[3-(1H-benzo[d]imidazol-2-yl)phenyl]-[5,5′-bipyrimidin]-2-amine] returned a viability at 48 h, 1 µM above 80% and a viability at 48 h, 3 µM of 50 to 80%.
`Clc1cc2[nH]c(-c3cccc(Nc4cnc(-c5ccccn5)cn4)c3)nc2cn1` [Example 301, N-(3-(6-chloro-1H-imidazo[4,5-c]pyridin-2-yl)phenyl)-5-(pyridin-2-yl)pyrazin-2-amine] returned a viability at 48 h, 10 µM above 80%.
